# Test results: PubChem BioAssay AID212 (DTP/NCI, 2004)
# Several values for one entry are separate records, joined by “and”; a condition that tells them apart may be missing. Equal entries are not always repeated. Results filed as inconclusive are left out.
# Test system: BDF1 mice, colon carcinoma 38 sc, T/C %
# Assay: NCI In Vivo Anticancer Drug Screen. Data for tumor model Colon Carcinoma 38 (subcutaneous) in B6D2F1 (BDF1) mice
# Summary of the method: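 Transplantable tumor in mice; compound-treated vs vehicle-dosed controls. Measured survival or tumor size; value = T ÷ C.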
# [1] = endpoint: median tumor weight (est.), dose: 50.0 mg/kg/injection, schedule: Q07DX002 (ip), vehicle: saline, higher = larger tumour
# [2] = endpoint: median tumor weight (est.), dose: 100.0 mg/kg/injection, schedule: Q07DX002 (ip), vehicle: saline, higher = larger tumour
# [3] = endpoint: median tumor weight (est.), dose: 50.0 mg/kg/injection, schedule: Q07DX002 (ip), vehicle: saline with Tween-80, higher = larger tumour
compound,measurement,setting,value
CC1OC(OC2CC(O)(C(=O)CO)Cc3c(O)c4c(c(O)c32)C(=O)c2ccccc2C4=O)CC(N)C1O (configuration not stated),T/C,"endpoint: median survival time, dose: 1.2 mg/kg/injection, schedule: Q07DX003 (iv), vehicle: saline, higher = longer survival",108 % of control
same,T/C,"endpoint: median survival time, dose: 1.9 mg/kg/injection, schedule: Q07DX003 (iv), vehicle: saline, higher = longer survival",111 % of control
same,T/C,"endpoint: median tumor weight (est.), dose: 0.12 mg/kg/injection, schedule: Q07DX002 (ip), vehicle: water, higher = larger tumour",120 % of control
same,T/C,"endpoint: median tumor weight (est.), dose: 0.25 mg/kg/injection, schedule: Q07DX002 (ip), vehicle: saline, higher = larger tumour",113 % of control
same,T/C,"endpoint: median tumor weight (est.), dose: 0.25 mg/kg/injection, schedule: Q07DX002 (ip), vehicle: water, higher = larger tumour",90 % of control
same,T/C,"endpoint: median tumor weight (est.), dose: 0.5 mg/kg/injection, schedule: Q07DX002 (ip), vehicle: saline, higher = larger tumour",104 % of control
same,T/C,"endpoint: median tumor weight (est.), dose: 0.5 mg/kg/injection, schedule: Q07DX002 (ip), vehicle: water, higher = larger tumour",78 % of control
same,T/C,"endpoint: median tumor weight (est.), dose: 1.0 mg/kg/injection, schedule: Q07DX002 (ip), vehicle: saline, higher = larger tumour",69 % of control
same,T/C,"endpoint: median tumor weight (est.), dose: 1.0 mg/kg/injection, schedule: Q07DX002 (ip), vehicle: water, higher = larger tumour",23 % of control
same,T/C,"endpoint: median tumor weight (est.), dose: 2.0 mg/kg/injection, schedule: Q07DX002 (ip), vehicle: saline, higher = larger tumour",72 % of control
CC1CN1P1(N2CC2C)=NP(N2CC2C)(N2CC2C)=NP(N2CC2C)(N2CC2C)=N1 (configuration not stated),T/C,"endpoint: median tumor weight (est.), dose: 6.25 mg/kg/injection, schedule: Q07DX002 (ip), vehicle: saline, higher = larger tumour",103 % of control
same,T/C,"endpoint: median tumor weight (est.), dose: 12.5 mg/kg/injection, schedule: Q07DX002 (ip), vehicle: saline, higher = larger tumour",104 % of control
same,T/C,"endpoint: median tumor weight (est.), dose: 25.0 mg/kg/injection, schedule: Q07DX002 (ip), vehicle: saline, higher = larger tumour",111 % of control
same,T/C,[1],155 % of control
same,T/C,[2],70 % of control and 94 % of control
O=C(O)CCCc1ccc(N(CCCl)CCCl)cc1,T/C,"endpoint: median tumor weight (est.), dose: 7.5 mg/kg/injection, schedule: Q07DX003 (ip), vehicle: saline with Tween-80, higher = larger tumour",103 % of control
same,T/C,"endpoint: median tumor weight (est.), dose: 15.0 mg/kg/injection, schedule: Q07DX002 (ip), vehicle: Klucel (hydroxypropylcellulose) (HPC), higher = larger tumour",62 % of control and 72 % of control and 82 % of control
same,T/C,"endpoint: median tumor weight (est.), dose: 15.0 mg/kg/injection, schedule: Q07DX003 (ip), vehicle: saline with Tween-80, higher = larger tumour",37 % of control
same,T/C,"endpoint: median tumor weight (est.), dose: 30.0 mg/kg/injection, schedule: Q07DX003 (ip), vehicle: saline with Tween-80, higher = larger tumour",62 % of control
same,T/C,"endpoint: median tumor weight (est.), dose: 60.0 mg/kg/injection, schedule: Q07DX002 (ip), vehicle: Klucel (hydroxypropylcellulose) (HPC), higher = larger tumour",69 % of control
CNC(=O)n1c(N)nc(-c2ccccc2)c1-c1ccccc1,T/C,"endpoint: median tumor weight (est.), dose: 12.5 mg/kg/injection, schedule: Q07DX002 (ip), vehicle: saline with Tween-80, higher = larger tumour",80 % of control
same,T/C,"endpoint: median tumor weight (est.), dose: 25.0 mg/kg/injection, schedule: Q07DX002 (ip), vehicle: saline with Tween-80, higher = larger tumour",99 % of control
same,T/C,[3],119 % of control
same,T/C,"endpoint: median tumor weight (est.), dose: 100.0 mg/kg/injection, schedule: Q07DX002 (ip), vehicle: saline with Tween-80, higher = larger tumour",98 % of control
C[C@H](N)C(=O)N[C@@H]1[C@H]2C(=C(O)C[C@@H](O)[C@@H]2O)C(=O)O[C@]1(C)C(Cl)Cl,T/C,"endpoint: median tumor weight (est.), dose: 0.37 mg/kg/injection, schedule: Q07DX002 (ip), vehicle: Klucel (hydroxypropylcellulose) (HPC), higher = larger tumour",97 % of control
same,T/C,"endpoint: median tumor weight (est.), dose: 0.38 mg/kg/injection, schedule: Q07DX002 (ip), vehicle: Klucel (hydroxypropylcellulose) (HPC), higher = larger tumour",75 % of control
same,T/C,"endpoint: median tumor weight (est.), dose: 3.0 mg/kg/injection, schedule: Q07DX002 (ip), vehicle: Klucel (hydroxypropylcellulose) (HPC), higher = larger tumour",53 % of control and 59 % of control
same,T/C,"endpoint: median tumor weight (est.), dose: 6.0 mg/kg/injection, schedule: Q07DX002 (ip), vehicle: Klucel (hydroxypropylcellulose) (HPC), higher = larger tumour",30 % of control and 40 % of control
CO[C@@H]1[C@H](O)CC[C@]2(CO2)[C@H]1[C@@]1(C)O[C@@H]1CC=C(C)C,T/C,"endpoint: median tumor weight (est.), dose: 3.12 mg/kg/injection, schedule: Q07DX002 (ip), vehicle: saline with Tween-80, higher = larger tumour",46 % of control and 55 % of control
same,T/C,"endpoint: median tumor weight (est.), dose: 6.25 mg/kg/injection, schedule: Q07DX002 (ip), vehicle: saline with Tween-80, higher = larger tumour",50 % of control and 61 % of control
same,T/C,[3],63 % of control and 68 % of control and 71 % of control
same,T/C,"endpoint: median tumor weight (est.), dose: 200.0 mg/kg/injection, schedule: Q07DX002 (ip), vehicle: saline with Tween-80, higher = larger tumour",92 % of control
Nc1cccc(=O)[nH]1,T/C,"endpoint: median tumor weight (est.), dose: 25.0 mg/kg/injection, schedule: Q07DX002 (ip), vehicle: suspension in saline, higher = larger tumour",116 % of control
same,T/C,[1],92 % of control
same,T/C,"endpoint: median tumor weight (est.), dose: 50.0 mg/kg/injection, schedule: Q07DX002 (ip), vehicle: suspension in saline, higher = larger tumour",66 % of control
same,T/C,[2],113 % of control
same,T/C,"endpoint: median tumor weight (est.), dose: 100.0 mg/kg/injection, schedule: Q07DX002 (ip), vehicle: suspension in saline, higher = larger tumour",87 % of control
same,T/C,"endpoint: median tumor weight (est.), dose: 200.0 mg/kg/injection, schedule: Q07DX002 (ip), vehicle: saline, higher = larger tumour",94 % of control
same,T/C,"endpoint: median tumor weight (est.), dose: 200.0 mg/kg/injection, schedule: Q07DX002 (ip), vehicle: suspension in saline, higher = larger tumour",77 % of control
same,T/C,"endpoint: median tumor weight (est.), dose: 400.0 mg/kg/injection, schedule: Q07DX002 (ip), vehicle: saline, higher = larger tumour",91 % of control
same,T/C,"endpoint: median tumor weight (est.), dose: 400.0 mg/kg/injection, schedule: Q07DX002 (ip), vehicle: suspension in saline, higher = larger tumour",74 % of control
same,T/C,"endpoint: median tumor weight (est.), dose: 800.0 mg/kg/injection, schedule: Q07DX002 (ip), vehicle: saline, higher = larger tumour",95 % of control
